In patent publication US20090099167A1, “Organic compounds” (Novartis Institutes for Biomedical Research, priority 2004, published 2009):
Like-named read-outs stand apart in the source and are kept apart here.

Molecular target: T1, human EphB4 receptor (Homo sapiens, UniProt P54760)
T1 construct: made in house; host or cells: Sf9 or Sf21 (baculovirus)
T1 sequence (P54760 566-987): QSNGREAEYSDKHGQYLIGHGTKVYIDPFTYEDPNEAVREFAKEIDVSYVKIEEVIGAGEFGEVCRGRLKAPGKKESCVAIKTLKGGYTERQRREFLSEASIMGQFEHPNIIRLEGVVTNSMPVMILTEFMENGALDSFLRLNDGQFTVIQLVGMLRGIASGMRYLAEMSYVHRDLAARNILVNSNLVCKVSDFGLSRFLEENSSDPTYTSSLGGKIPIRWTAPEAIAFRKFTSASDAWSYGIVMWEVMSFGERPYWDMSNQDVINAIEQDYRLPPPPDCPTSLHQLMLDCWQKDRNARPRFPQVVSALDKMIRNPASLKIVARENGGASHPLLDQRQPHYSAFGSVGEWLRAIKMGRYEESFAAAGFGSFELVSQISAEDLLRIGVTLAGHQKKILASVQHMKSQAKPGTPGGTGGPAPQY
Assay: EphB4 kinase assay, GST-EphB, 33P incorporation into poly(Glu,Tyr)
Assay type: biochemical
Description: EphB4: Production and measure of enzymatic activity: Generation of Bac-to-Bac™ (Initrogen Life Technologies, Basel, Switzerland) GST-fusion expression vectors: Entire cytoplasmatic coding regions of the EphB-class are amplified by PCR from cDNA libraries derived from human placenta or brain, respectively. Recombinant baculovirus are generated that express the amino acid region 566-987 of the human EphB4 receptor (SwissProt Database, Accession No. P54760). GST sequence is cloned into pFastBac1® vector (Invitrogen Life Technologies, Basel, Switzerland) and PCR amplified. cDNAs encoding EphB4-receptor domains, respectively, are cloned in frame 3′prime to the GST sequence into this modified FastBac1 vector to generate pBac-to-Bac™ donor vectors. Single colonies arising from the transformation are inoculated to give overnight cultures for small scale plasmid preparation. […] By automated sequencing the inserts and approximately 50 bp of the flanking vector sequences are confirmed on both strands. Production of viruses: Viruses for each of the kinases are made according to the protocol supplied by GIBCO if not stated otherwise. In brief, transfer vectors containing the kinase domains are transfected into the DH10Bac cell line (GIBCO) and plated on selective agar plates. Colonies without insertion of the fusion sequence into the viral genome (carried by the bacteria) are blue. Single white colonies are picked and viral DNA (bacmid) isolated from the bacteria by standard plasmid purification procedures. Sf9 cells or Sf21 cells are then transfected in 25 cm2 flasks with the viral DNA using Cellfectin reagent according to the protocol. Purification of GST-tagged kinases: The centrifuged cell lysate is loaded onto a 2 mL glutathione-sepharose column (Pharmacia) and washed three times with 10 mL of 25 mM Tris-HCl, pH 7.5, 2 mM EDTA, 1 mM DTT, 200 mM NaCl. The GST-tagged proteins are then eluted by 10 applications (1 mL each) of 25 mM Tris-HCl, pH 7.5, 10 mM reduced-glutathione, 100 mM NaCl, 1 mM DTT, 10% Glycerol and stored at −70° C. Protein kinase assays: The activities of protein kinases are assayed in the presence or absence of inhibitors, by measuring the incorporation of 33P from [γ33P]ATP into a polymer of glutamic acid and tyrosine (poly(Glu,Tyr)) as a substrate. The kinase assays with purified GST-EphB (30 ng) are carried out for 15-30 min at ambient temperature in a final volume of 30 μL containing 20 mM Tris.HCl, pH 7.5, 10 mM MgCl2, 3-50 mM MnCl2, 0.01 mM Na3VO4, 1% DMSO, 1 mM DTT, 3 μg/mL poly(Glu,Tyr) 4:1 (Sigma; St. Louis, Mo., USA) and 2.0-3.0 μM ATP (γ-[33P]-ATP 0.1 μCi). The assay is terminated by the addition of 20 μL of 125 mM EDTA. Subsequently, 40 μl of the reaction mixture are transferred onto Immobilon-PVDF membrane (Millipore, Bedford, Mass., USA) previously soaked for 5 min with methanol, rinsed with water, then soaked for 5 min with 0.5% H3PO4 and mounted on vacuum manifold with disconnected vacuum source. After spotting all samples, vacuum is connected and each well rinsed with 200 μl 0.5% H3PO4. Membranes are removed and washed 4× on a shaker with 1.0% H3PO4, once with ethanol. Membranes are counted after drying at ambient temperature, mounting in Packard TopCount96-well frame, and addition of 10 μL/well of Microscint™ (Packard). IC50 values are calculated by linear regression analysis of the percentage inhibition of each compound in duplicate, at four concentrations (usually 0.01, 0.1, 1 and 10 μM). One unit of protein kinase activity is defined as 1 nmole of 33P ATP transferred from [γ33P] ATP to the substrate protein per minute per mg of protein at 37° C. Compounds of formula I show EphB4 inhibition down to 10 nM, preferably IC50 values between 0.01-1.0 μM.

[1] = Table 4, read-out: EphB4, activity (IC50 for kinase inhibition)
[2] = Table 5, read-out: EphB4, IC50 class

Row | IC50 [1] [nM] | IC50 [2] [nM] | SMILES
1 | < 10000 |  | CN1CCN(c2ccc(-c3cnn4c(N)c(-c5cccc(O)c5)cnc34)cc2)CC1 [Example 1, 3-{7-Amino-3-[4-(4-methyl-piperazin-1-yl)-phenyl]-pyrazolo[1,5-a]pyrimidin-6-yl}-phenol]
2 | < 10000 |  | CN1CCN(c2cccc(-c3cnn4c(N)c(-c5cccc(O)c5)cnc34)c2)CC1 [Example 29, 3-{7-Amino-3-[3-(4-methyl-piperazin-1-yl)-phenyl]-pyrazolo[1,5-a]pyrimidin-6-yl}-phenol]
3 | < 10000 |  | Nc1c(-c2cccc(O)c2)cnc2c(-c3cccnc3)cnn12 [Example 46, 3-[7-Amino-3-pyridin-3-yl-pyrazolo[1,5-a]pyrimidin-6-yl]-phenol]
4 | < 10000 |  | COc1ccccc1-c1cnn2c(N)c(-c3cccc(O)c3)cnc12 [Example 48, 3-[7-Amino-3-(2-methoxy-phenyl)-pyrazolo[1,5-a]pyrimidin-6-yl]-phenol]
5 | < 10000 |  | COc1cccc(-c2cnn3c(N)c(-c4cccc(O)c4)cnc23)c1 [Example 60, 3-[7-Amino-3-(3-methoxy-phenyl)-pyrazolo[1,5-a]pyrimidin-6-yl]-phenol]
6 |  | < 1000 | Cc1nc2c(-c3cccc(N4CCN(C)CC4)c3)cnn2c(N)c1-c1cccc(Cl)c1 [Example 72, 6-(3-Chloro-phenyl)-5-methyl-3-[3-(4-methyl-piperazin-1-yl)-phenyl]-pyrazolo[1,5-a]pyrimidin-7-ylamine]
7 |  | < 1000 | Cc1nc2c(-c3ccc(N4CCN(C)CC4)cc3)cnn2c(N)c1-c1cccc(Cl)c1 [Example 73, 6-(3-Chloro-phenyl)-5-methyl-3-[4-(4-methyl-piperazin-1-yl)-phenyl]-pyrazolo[1,5-a]pyrimidin-7-ylamine]
8 |  | < 1000 | COc1cc(N2CCN(C)CC2)ccc1-c1cnn2c(N)c(-c3cccc(Cl)c3)c(C)nc12 [Example 75, 6-(3-Chloro-phenyl)-3-[2-methoxy-4-(4-methyl-piperazin-1-yl)-phenyl]-5-methyl-pyrazolo[1,5-a]pyrimidin-7-ylamine]
9 |  | < 1000 | COc1cc(N2CCN(C)CC2)ccc1-c1cnn2c(N)c(-c3cccc(O)c3)cnc12 [Example 76, 3-{7-Amino-3-[2-methoxy-4-(4-methyl-piperazin-1-yl)-phenyl]-pyrazolo[1,5-a]pyrimidin-6-yl}-phenol]
10 |  | < 1000 | CN1CCN(c2ccc(-c3cnn4c(N)c(-c5ccccc5Cl)cnc34)cc2)CC1 [Example 77, 6-(2-Chloro-phenyl)-3-[4-(4-methyl-piperazin-1-yl)-phenyl]-pyrazolo[1,5-a]pyrimidin-7-ylamine]
11 |  | < 1000 | CN1CCN(c2cccc(-c3cnn4c(N)c(-c5ccccc5Cl)cnc34)c2)CC1 [Example 78, 6-(2-Chloro-phenyl)-3-[3-(4-methyl-piperazin-1-yl)-phenyl]-pyrazolo[1,5-a]pyrimidin-7-ylamine]
12 |  | < 1000 | Cc1nc2c(-c3ccc(N4CCN(C)CC4)cc3)cnn2c(N)c1-c1ccc(F)cc1 [Example 79, 6-(4-Fluoro-phenyl)-5-methyl-3-[4-(4-methyl-piperazin-1-yl)-phenyl]-pyrazolo[1,5-a]pyrimidin-7-ylamine]
13 |  | < 1000 | Cc1nc2c(-c3cccc(N4CCN(C)CC4)c3)cnn2c(N)c1-c1ccc(F)cc1 [Example 80, 6-(4-Fluoro-phenyl)-5-methyl-3-[3-(4-methyl-piperazin-1-yl)-phenyl]-pyrazolo[1,5-a]pyrimidin-7-ylamine]
14 |  | < 1000 | Cc1nc2c(-c3cccc(N4CCN(C5CCN(C)CC5)CC4)c3)cnn2c(N)c1-c1cccc(Cl)c1 [Example 81, 6-(3-Chloro-phenyl)-5-methyl-3-{3-[4-(1-methyl-piperidin-4-yl)-piperazin-1-yl]-phenyl}-pyrazolo[1,5-a]pyrimidin-7-ylamine]
15 |  | < 1000 | Cc1nc2c(-c3cccc(N4CCN(C)CC4)c3)cnn2c(N)c1-c1ccc(F)c(Cl)c1 [Example 82, 6-(3-Chloro-4-fluoro-phenyl)-5-methyl-3-[3-(4-methyl-piperazin-1-yl)-phenyl]pyrazolo[1,5-a]pyrimidin-7-ylamine]
16 |  | < 1000 | Cc1nc2c(-c3ccc(N4CCN(C)CC4)cc3)cnn2c(N)c1-c1ccc(F)c(Cl)c1 [Example 83, 6-(3-Chloro-4-fluoro-phenyl)-5-methyl-3-[4-(4-methyl-piperazin-1-yl)-phenyl]-pyrazolo[1,5-a]pyrimidin-7-ylamine]
17 |  | < 1000 | Cc1nc2c(-c3cccc(N4CCN(C)CC4)c3)cnn2c(N)c1-c1cccc(Br)c1 [Example 84, 6-(3-Bromo-phenyl)-5-methyl-3-[3-(4-methyl-piperazin-1-yl)-phenyl]-pyrazolo[1,5-a]pyrimidin-7-ylamine]
18 |  | 1000 to 10000 | CN1CCN(c2cccc(-c3cnn4c(N)c(Cc5cccc(Br)c5)cnc34)c2)CC1 [Example 85, 6-(3-Bromo-benzyl)-3-[3-(4-methyl-piperazin-1-yl)-phenyl]pyrazolo[1,5-a]pyrimidin-7-ylamine]
19 |  | 1000 to 10000 | CN1CCN(c2cccc(-c3cnn4c(N)c(-c5cccc(Br)c5)cnc34)c2)CC1 [Example 86, 6-(3-Bromo-phenyl)-3-[3-(4-methyl-piperazin-1-yl)-phenyl]-pyrazolo[1,5-a]pyrimidin-7-ylamine]
20 |  | < 1000 | COc1ccc(-c2cnn3c(N)c(-c4cccc(Cl)c4)c(C)nc23)cc1 [Example 88, 6-(3-Chloro-phenyl)-3-(4-methoxy-phenyl)-5-methyl-pyrazolo[1,5-a]pyrimidin-7-ylamine]
21 |  | < 1000 | Cc1nc2c(-c3cccc(N4C[C@@H](C)O[C@@H](C)C4)c3)cnn2c(N)c1-c1cccc(Cl)c1 [Example 89, 6-(3-Chloro-phenyl)-3-[3-((2R,6S)-2,6-dimethyl-morpholin-4-yl)-phenyl]-5-methyl-pyrazolo[1,5-a]pyrimidin-7-ylamine]
22 |  | < 1000 | Cc1nc2c(-c3cccc(N4CCN(CCO)CC4)c3)cnn2c(N)c1-c1cccc(Cl)c1 [Example 90, 2-(4-{3-[7-Amino-6-(3-chloro-phenyl)-5-methyl-pyrazolo[1,5-a]pyrimidin-3-yl]-phenyl}-piperazin-1-yl)-ethanol]
23 |  | < 1000 | CN1CCN(c2cccc(-c3cnn4c(N)c(Cc5ccccc5)cnc34)c2)CC1 [Example 91, 6-Benzyl-3-[3-(4-methyl-piperazin-1-yl)-phenyl]-pyrazolo[1,5-a]pyrimidin-7-ylamine]
24 |  | < 1000 | COc1ccc(-c2cnn3c(N)c(-c4cccc(Cl)c4)c(CF)nc23)cc1OC [Example 92, 6-(3-Chloro-phenyl)-3-(3,4-dimethoxy-phenyl)-5-fluoromethyl-pyrazolo[1,5-a]pyrimidin-7-ylamine]
25 |  | < 1000 | COc1ccc(-c2cnn3c(N)c(-c4cccc(Cl)c4)c(C)nc23)cc1OC [Example 93, 6-(3-Chloro-phenyl)-3-(3,4-dimethoxy-phenyl)-5-methyl-pyrazolo[1,5-a]pyrimidin-7-ylamine]
